This test concerns the target LRRK2 (Homo sapiens, UniProt Q5S007). The experiment in a line: LRRK2-LRRK2 G2019S-Assay (LanthaScreen Eu Kinase Binding Assay). As to conditions: 5 nM LRRK2, 10 nM tracer 236, 2 nM EU-Anti-GST antibody, 1 h at RT; read-out: LRRK2 Activities: IC50. As for the experimental part:
In the assay LanthaScreen™ Eu Kinase Binding Assay by Invitrogen Corporation (Carlsbad) the effect of invention of a compound on the phosphorylation is determined by measurement of fluorescence intensity emission ratio based on the binding and displacement of a proprietary, Alexa Fluor® 647-labeled, ATP-competitive kinase inhibitor scaffold (kinase tracer) to the kinase of interest. Binding of the tracer to the kinase is detected using a europium-labeled anti-tag antibody, which binds to the kinase of interest. Simultaneous binding of both the tracer and antibody to the kinase results in a high degree of FRET (fluorescence resonance energy transfer) from the europium (Eu) donor fluorophore to the Alexa Fluor® 647 acceptor fluorophore on the kinase tracer. Binding of an inhibitor to the kinase competes for binding with the tracer, resulting in a loss of FRET. The fluorescence intensity ratio is directly proportional to the amount of peptide phosphorylation.
To the wells of an 384 well small volume plate (Greiner, Frickenhausen) are added (i) the compound under test in 5% DMSO/distilled water (5 μl), (ii) 5 μl of the kinase antibody mixture resulting in a final concentration 5 nM LRRK2 or their mutants, 2 nM EU-Anti-GST antibody in 1× kinase buffer A. The reaction was started with addition of (iii) 5 μl resulting in a final concentration of 10 nM tracer 236. The assay plate was incubated at RT for 1 h and fluorescence intensity readings were collected using a TECAN M1000 at two wavelengths of λex 340/λem 615 nm and λex 340/λem 665 nm with a delay time of 100 μs and an integration time of 200 μs after 60 minutes. The emission ratio was calculated by division of the acceptor/tracer emission ([…]) by the antibody/donor emission ([…]). The inhibitor concentration was plotted versus the emission ratio to determine the IC50 using XLFit 5.0 (IDBS, Guildford) to fit to a sigmoidal dose response curve with a variable slope.
(In general: Time-resolved FRET reads energy transfer from a long-lived donor to a nearby acceptor.)

pIC50: −log10 of the molar value.

Sequence of LRRK2 (Q5S007 970-2527 limits assumed): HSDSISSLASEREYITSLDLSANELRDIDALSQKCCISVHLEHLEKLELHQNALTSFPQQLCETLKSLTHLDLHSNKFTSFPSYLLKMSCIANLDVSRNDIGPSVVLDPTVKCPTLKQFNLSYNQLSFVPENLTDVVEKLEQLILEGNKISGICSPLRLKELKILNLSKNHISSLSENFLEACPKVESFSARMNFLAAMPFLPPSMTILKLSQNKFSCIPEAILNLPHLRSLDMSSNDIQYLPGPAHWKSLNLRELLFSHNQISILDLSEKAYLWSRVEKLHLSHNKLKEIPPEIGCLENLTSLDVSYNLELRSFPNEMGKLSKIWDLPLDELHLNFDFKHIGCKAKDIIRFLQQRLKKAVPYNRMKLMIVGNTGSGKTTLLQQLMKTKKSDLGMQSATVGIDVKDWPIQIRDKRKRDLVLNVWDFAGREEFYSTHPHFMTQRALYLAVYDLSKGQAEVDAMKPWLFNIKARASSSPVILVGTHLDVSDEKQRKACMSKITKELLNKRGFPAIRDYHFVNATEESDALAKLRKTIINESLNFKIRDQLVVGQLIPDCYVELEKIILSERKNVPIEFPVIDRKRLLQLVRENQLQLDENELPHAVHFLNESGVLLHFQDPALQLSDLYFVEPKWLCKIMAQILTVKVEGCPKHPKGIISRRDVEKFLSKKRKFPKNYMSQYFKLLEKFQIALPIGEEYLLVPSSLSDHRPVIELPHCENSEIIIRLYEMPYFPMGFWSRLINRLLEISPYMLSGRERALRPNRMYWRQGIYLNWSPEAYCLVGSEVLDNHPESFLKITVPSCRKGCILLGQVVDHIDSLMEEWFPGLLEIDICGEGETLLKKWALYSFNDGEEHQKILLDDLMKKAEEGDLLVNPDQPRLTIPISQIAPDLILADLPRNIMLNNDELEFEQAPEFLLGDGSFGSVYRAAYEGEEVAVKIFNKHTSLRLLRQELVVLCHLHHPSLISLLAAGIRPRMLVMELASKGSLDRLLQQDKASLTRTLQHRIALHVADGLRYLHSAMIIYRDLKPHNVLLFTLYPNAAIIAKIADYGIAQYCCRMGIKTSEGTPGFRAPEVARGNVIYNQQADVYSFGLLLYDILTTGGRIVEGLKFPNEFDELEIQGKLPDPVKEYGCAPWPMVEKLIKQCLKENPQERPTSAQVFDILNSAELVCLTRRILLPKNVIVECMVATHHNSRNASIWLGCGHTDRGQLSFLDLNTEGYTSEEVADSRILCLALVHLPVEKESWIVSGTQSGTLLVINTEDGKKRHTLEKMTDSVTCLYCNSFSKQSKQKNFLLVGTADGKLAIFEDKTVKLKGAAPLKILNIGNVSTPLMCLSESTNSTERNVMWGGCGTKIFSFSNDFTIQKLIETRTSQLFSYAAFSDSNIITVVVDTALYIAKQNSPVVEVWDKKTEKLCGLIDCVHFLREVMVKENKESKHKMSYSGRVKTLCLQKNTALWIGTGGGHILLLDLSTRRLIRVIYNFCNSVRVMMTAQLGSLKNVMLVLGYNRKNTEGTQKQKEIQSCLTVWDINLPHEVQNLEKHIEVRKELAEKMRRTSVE

Regarding `COc1cccc2nc(Nc3ccc(N4CCOC4=O)cc3)c3n[nH]cc3c12` [Example 40, 3-(4-((9-methoxy-2H-pyrazolo[3,4-c]quinolin-4-yl)amino)phenyl)oxazolidin-2-one], the pIC50 was above 8.00. The same measure for `COc1cc(C(=O)N2CCOCC2)ccc1Nc1nc2cc(S(C)(=O)=O)ccc2c2cn[nH]c12` [Example 194, (3-methoxy-4-((7-(methylsulfonyl)-3H-pyrazolo[3,4-c]quinolin-4-yl)amino)phenyl)(morpholino)methanone]: 6.00 to 7.00. The result for `COc1ccc(Nc2nc3ccc(C)cc3c3cn[nH]c23)cc1OC` [Example 72, N-(3,4-dimethoxyphenyl)-8-methyl-3H-pyrazolo[3,4-c]quinolin-4-amine] reads 6.00 to 7.00. The same measure for `COCCCn1cc(Nc2nc3c(OC)cccc3c3cn[nH]c23)cn1` [Example 306, 6-methoxy-N-(1-(3-methoxypropyl)-1H-pyrazol-4-yl)-3H-pyrazolo[3,4-c]quinolin-4-amine]: 6.00 to 7.00; for `COc1cccc2nc(Nc3ccc(-c4ncco4)cc3)c3[nH]ncc3c12` [Example 58, 9-methoxy-N-(4-(oxazol-2-yl)phenyl)-3H-pyrazolo[3,4-c]quinolin-4-amine]: 6.00 to 7.00. Take `COc1cccc2c1nc(Nc1ccc(N3CCOCC3)cc1)c1[nH]ncc12` [Example 304, 6-methoxy-N-(4-morpholinophenyl)-3H-pyrazolo[3,4-c]quinolin-4-amine]: the negative-log IC50 (pIC50) was 6.00 to 7.00.

Consider `COCCn1ncc(Nc2nc3ccc(S(C)(=O)=O)cc3c3cn[nH]c23)c1C` [Example 210, N-(1-(2-methoxyethyl)-5-methyl-1H-pyrazol-4-yl)-8-(methylsulfonyl)-3H-pyrazolo[3,4-c]quinolin-4-amine], for which the pIC50 is 7.00 to 8.00. As to `Fc1cccc2c1nc(Nc1ccc(N3CCOCC3)cc1)c1[nH]ncc12` [Example 50, 6-fluoro-N-(4-morpholinophenyl)-3H-pyrazolo[3,4-c]quinolin-4-amine], the pIC50 was 6.00 to 7.00.

`Cc1cccc2nc(Nc3cccc(S(C)(=O)=O)c3)c3[nH]ncc3c12` [Example 88, 9-methyl-N-(3-(methylsulfonyl)phenyl)-3H-pyrazolo[3,4-c]quinolin-4-amine]: the pIC50 was 6.00 to 7.00. The result for `CSc1ccc2nc(Nc3ccc(N4CCOCC4)cc3)c3[nH]ncc3c2c1` [Example 43, 8-(methylthio)-N-(4-morpholinophenyl)-3H-pyrazolo[3,4-c]quinolin-4-amine] reads 7.00 to 8.00; that for `CC(C)n1cc(Nc2nc3ccc(S(C)(=O)=O)cc3c3cn[nH]c23)c(C(N)=O)n1` [Example 250, 1-isopropyl-4-((8-(methylsulfonyl)-3H-pyrazolo[3,4-c]quinolin-4-yl)amino)-1H-pyrazole-3-carboxamide], 6.00 to 7.00. The same measure for `CSc1ccc2nc(Nc3cccc(S(C)(=O)=O)c3)c3[nH]ncc3c2c1` [Example 44, N-(3-(methylsulfonyl)phenyl)-8-(methylthio)-3H-pyrazolo[3,4-c]quinolin-4-amine]: 7.00 to 8.00. The result for `COc1cccc2nc(Nc3cccc(CN(C)C)c3)c3[nH]ncc3c12` [Example 28, N-(3-((dimethylamino)methyl)phenyl)-9-methoxy-3H-pyrazolo[3,4-c]quinolin-4-amine] reads 6.00 to 7.00; that for `COc1ccc2nc(Nc3cccc(CN(C)C)c3)c3n[nH]cc3c2c1` [Example 5, N-(3-((dimethylamino)methyl)phenyl)-8-methoxy-2H-pyrazolo[3,4-c]quinolin-4-amine], 6.00 to 7.00. Turning to `CC(=O)N1CCC(n2cc(Nc3nc4ccc(S(C)(=O)=O)cc4c4cn[nH]c34)cn2)CC1` [Example 155, 1-(4-(4-((8-(methylsulfonyl)-3H-pyrazolo[3,4-c]quinolin-4-yl)amino)-1H-pyrazol-1-yl)piperidin-1-yl)ethan-1-one], the pIC50 is above 8.00. The result for `COc1cccc2nc(Nc3ccc(N4CCN(C(C)(C)C)CC4)cc3)c3[nH]ncc3c12` [Example 38, N-(4-(4-(tert-butyl)piperazin-1-yl)phenyl)-9-methoxy-3H-pyrazolo[3,4-c]quinolin-4-amine] reads 7.00 to 8.00; that for `COc1cccc2nc(Nc3ccc(N4CCOCC4)c(C#N)c3)c3[nH]ncc3c12` [Example 71, 5-((9-methoxy-3H-pyrazolo[3,4-c]quinolin-4-yl)amino)-2-morpholinobenzonitrile], 7.00 to 8.00. As to `COc1ccc2nc(Nc3cccc(CN4CCOCC4)c3)c3n[nH]cc3c2c1` [Example 23, 8-methoxy-N-(3-(morpholinomethyl)phenyl)-2H-pyrazolo[3,4-c]quinolin-4-amine], the pIC50 was 6.00 to 7.00. The same measure for `CS(=O)(=O)c1ccc2c(c1)nc(Nc1ccc(C(=O)N3CCOCC3)c(F)c1)c1[nH]ncc12` [Example 174, (2-fluoro-4-((7-(methylsulfonyl)-3H-pyrazolo[3,4-c]quinolin-4-yl)amino)phenyl)(morpholino)methanone]: 6.00 to 7.00. The same measure for `Fc1cccc2nc(Nc3ccc(N4CCOCC4)cc3)c3[nH]ncc3c12` [Example 9, 9-fluoro-N-(4-morpholinophenyl)-3H-pyrazolo[3,4-c]quinolin-4-amine]: 7.00 to 8.00; for `COc1ccc2nc(Nc3ccc4c(c3)N(C)C(=O)CO4)c3n[nH]cc3c2c1` [Example 322, 6-((8-methoxy-2H-pyrazolo[3,4-c]quinolin-4-yl)amino)-4-methyl-2H-benzo[b][1,4]oxazin-3(4H)-one]: 6.00 to 7.00. The result for `COc1cccc2nc(Nc3ccc4c(c3)S(=O)(=O)CC4)c3[nH]ncc3c12` [Example 19, 6-((9-methoxy-3H-pyrazolo[3,4-c]quinolin-4-yl)amino)-2,3-dihydrobenzo[b]thiophene 1,1-dioxide] reads 7.00 to 8.00; that for `CS(=O)(=O)c1ccc2nc(Nc3ccc4c(c3)N(C(=O)C3CC3)CCC4)c3n[nH]cc3c2c1` [Example 350, cyclopropyl(7-((8-(methylsulfonyl)-2H-pyrazolo[3,4-c]quinolin-4-yl)amino)-3,4-dihydroquinolin-1(2H)-yl)methanone], 6.00 to 7.00.

Consider `CS(=O)(=O)c1ccc2c(c1)nc(Nc1cnn(C3CCOCC3)c1)c1[nH]ncc12` [Example 160, 7-(methylsulfonyl)-N-(1-(tetrahydro-2H-pyran-4-yl)-1H-pyrazol-4-yl)-3H-pyrazolo[3,4-c]quinolin-4-amine], for which the negative-log IC50 (pIC50) was above 8.00.

On to `COc1cc(C(=O)N2CCOCC2)ccc1Nc1nc2cccc(OC)c2c2cn[nH]c12` [Example 200, (3-methoxy-4-((9-methoxy-3H-pyrazolo[3,4-c]quinolin-4-yl)amino)phenyl)(morpholino)methanone], for which the pIC50 is 7.00 to 8.00. For the compound `COc1cccc2nc(Nc3cc(C4CC4)[nH]n3)c3n[nH]cc3c12` [Example 26, N-(5-cyclopropyl-1H-pyrazol-3-yl)-9-methoxy-3H-pyrazolo[3,4-c]quinolin-4-amine], the pIC50 was 7.00 to 8.00. The same measure for `COc1ccc2nc(Nc3cnn(C(C)c4ccccc4)c3)c3n[nH]cc3c2c1` (stereo not shown) [Example 320, 8-methoxy-N-(1-(1-phenylethyl)-1H-pyrazol-4-yl)-2H-pyrazolo[3,4-c]quinolin-4-amine]: 6.00 to 7.00; for `C[C@H]1CCCN1c1cccc(Nc2nc3ccc(S(C)(=O)=O)cc3c3c[nH]nc23)c1` [Example 337, (S)—N-(3-(2-methylpyrrolidin-1-yl)phenyl)-8-(methylsulfonyl)-2H-pyrazolo[3,4-c]quinolin-4-amine]: 6.00 to 7.00. The same measure for `COc1ccc2nc(Nc3ccc(C(=O)N4CCOCC4)c(F)c3)c3n[nH]cc3c2c1` [Example 34, (2-fluoro-4-((8-methoxy-2H-pyrazolo[3,4-c]quinolin-4-yl)amino)phenyl)(morpholino)methanone]: 7.00 to 8.00; for `COCCn1cc(Nc2nc3ccc(S(C)(=O)=O)cc3c3cn[nH]c23)cn1` [Example 113, N-(1-(2-methoxyethyl)-1H-pyrazol-4-yl)-8-(methylsulfonyl)-3H-pyrazolo[3,4-c]quinolin-4-amine]: 7.00 to 8.00; for `COc1cccc2nc(Nc3ccc(N4CCOCC4)nc3)c3[nH]ncc3c12` [Example 17, 9-methoxy-N-(6-morpholinopyridin-3-yl)-3H-pyrazolo[3,4-c]quinolin-4-amine]: 7.00 to 8.00.

For the compound `COc1cccc2nc(Nc3ccc(F)c(S(C)(=O)=O)c3)c3[nH]ncc3c12` [Example 32, N-(4-fluoro-3-(methylsulfonyl)phenyl)-9-methoxy-3H-pyrazolo[3,4-c]quinolin-4-amine], the negative logarithm of the IC50 (pIC50) was 7.00 to 8.00. The result for `COc1cccc2nc(Nc3ccc(C(=O)N4CCCC4)cc3)c3[nH]ncc3c12` [Example 61, (4-((9-methoxy-3H-pyrazolo[3,4-c]quinolin-4-yl)amino)phenyl)(pyrrolidin-1-yl)methanone] reads 7.00 to 8.00; that for `COc1cccc2nc(Nc3ccc4c(c3)S(=O)(=O)C=C4)c3[nH]ncc3c12` [Example 20, 6-((9-methoxy-3H-pyrazolo[3,4-c]quinolin-4-yl)amino)benzo[b]thiophene 1,1-dioxide], 7.00 to 8.00.

As a reminder, the pIC50 is the IC50 on a negative log10 scale, so that one unit is a factor of ten.

Source of the values: patent US10752624B2, “Kinase inhibitors” (Origenis GmbH, priority 2012, dated 2020).
